Data reported in ChEMBL document CHEMBL5126528, “Recent strategies targeting Embryonic Ectoderm Development (EED) for cancer therapy: Allosteric inhibitors, PPI inhibitors, and PROTACs” (Eur J Med Chem, 2022).
Values after ≈ are worked out from the molar mass of the structure shown. Where a name gives a salt, the structure may show the parent alone.

Assays:
Polycomb protein EED [1] = target: T1, Polycomb protein EED (Homo sapiens, UniProt O75530); assay: Inhibition of EED (unknown origin)
Target sequence in this assay (O75530 whole entry): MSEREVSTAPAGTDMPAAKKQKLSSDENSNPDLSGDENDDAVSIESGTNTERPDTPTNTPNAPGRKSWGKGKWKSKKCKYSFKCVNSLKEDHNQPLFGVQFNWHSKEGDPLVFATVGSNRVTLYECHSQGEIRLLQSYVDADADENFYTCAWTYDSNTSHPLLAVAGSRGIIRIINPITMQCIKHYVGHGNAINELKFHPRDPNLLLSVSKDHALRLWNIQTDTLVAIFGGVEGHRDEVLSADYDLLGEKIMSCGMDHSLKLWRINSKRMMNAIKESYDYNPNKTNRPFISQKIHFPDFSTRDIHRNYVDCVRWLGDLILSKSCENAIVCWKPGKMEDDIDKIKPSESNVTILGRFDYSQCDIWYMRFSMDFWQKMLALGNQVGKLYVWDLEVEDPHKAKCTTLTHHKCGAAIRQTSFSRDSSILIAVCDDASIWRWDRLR

Polycomb protein EED [2] = target: T1, Polycomb protein EED; assay: Binding affinity to EED (unknown origin) assessed as dissociation constant
Target sequence in this assay (O75530 whole entry): as above

Polycomb protein EED [3] = target: T1, Polycomb protein EED; assay: Inhibition of human EED (76 to 441 residues) expressed in Escherichia coli strain BL21(DE3) by alpha screen assay
Target sequence in this assay (O75530 whole entry): as above

Polycomb protein EED [4] = target: T1, Polycomb protein EED; assay: Binding affinity to EED (unknown origin) assessed as dissociation constant by SPR analysis
Target sequence in this assay (O75530 whole entry): as above

[5] = Inhibition of PRC2 (unknown origin); parameters: species or system Homo sapiens
[6] = Solubility of the compound at pH 7.4; assay type: physicochemical; conditions: buffer
[7] = Antiproliferative activity against human ARCaP cells expressing sh RNA EPLIN
LNCaP C4-2B [8] = assay: Antiproliferative activity against human LNCaP C4-2B cells expressing TaxR
[9] = Antiproliferative activity against human ARCaPE cells expressing sh Ctrl; conditions: ARCaP
LNCaP C4-2B [10] = assay: Antiproliferative activity against human LNCaP C4-2B cells
LNCaP C4-2 = assay: Antiproliferative activity against human LNCaP C4-2 cells
BC [11] = assay: Inhibition of cell growth in human multiple BC cells bearing EZH2 […] mutant; assay type: functional, cell-based
BC [12] = assay: Inhibition of cell growth in human multiple BC cells bearing wildtype EZH2; assay type: functional, cell-based
Lymphoma cell line [13] = assay: Inhibition of cell growth in human Lymphoma cell line bearing EZH2 […] mutant; assay type: functional, cell-based
Lymphoma cell line [14] = assay: Inhibition of cell growth in human Lymphoma cell line bearing wildtype EZH2; assay type: functional, cell-based
KARPAS-422 [15] = assay: Antiproliferative activity against human KARPAS-422 cells treated for 11 days; assay type: functional, cell-based; conditions: KARPAS-422, 264 h
Pfeiffer [16] = assay: Antiproliferative activity against human Pfeiffer cells treated for 14 days; assay type: functional, cell-based; conditions: 336 h
[17] = Inhibition of FITC-labeled EZH2 (39 to 63 residues) (unknown origin)/N-terminal 6x His-tagged human EED protein interaction by incubated for 2 hrs FP-based competitive assay
Polycomb protein EED [18] = target: T1, Polycomb protein EED; conditions: dose 500.0 µM
Target sequence in this assay (O75530 2-441 limits assumed): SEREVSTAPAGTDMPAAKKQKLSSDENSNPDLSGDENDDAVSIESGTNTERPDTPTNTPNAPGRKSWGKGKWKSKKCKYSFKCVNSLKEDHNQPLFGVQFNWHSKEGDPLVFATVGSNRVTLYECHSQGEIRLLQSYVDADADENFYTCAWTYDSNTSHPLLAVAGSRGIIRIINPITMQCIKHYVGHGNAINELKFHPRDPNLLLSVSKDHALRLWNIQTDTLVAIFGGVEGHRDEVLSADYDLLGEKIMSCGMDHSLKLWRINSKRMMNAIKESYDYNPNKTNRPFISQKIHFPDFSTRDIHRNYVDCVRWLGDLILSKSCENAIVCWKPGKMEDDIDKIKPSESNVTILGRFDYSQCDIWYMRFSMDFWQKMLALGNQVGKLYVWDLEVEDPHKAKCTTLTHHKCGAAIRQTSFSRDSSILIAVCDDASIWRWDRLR
Description: Binding affinity to GST-tagged EED (unknown origin) assessed as thermal stability by measuring melting temperature at 500 uM by TSA method

[19] = Binding affinity to EZH2-EED (unknown origin) protein interaction assessed as inhibition constant by FP binding assay; parameters: species or system Homo sapiens
[20] = Inhibition of EZH2-EED (unknown origin) protein interaction by FP binding assay; parameters: species or system Homo sapiens
KARPAS-422 [21] = assay: Antiproliferative activity against human KARPAS-422 cells assessed as cell growth inhibition measured after 7 to 10 days by celltitre-glo-luminescent assay; assay type: functional; conditions: time 7-10 day
Polycomb protein EED [22] = target: T1, Polycomb protein EED; assay: Binding affinity to human N-terminal His-6 tagged EED expressed in Escherichia coli strain […] by SPR analysis
Target sequence in this assay (O75530 whole entry): as the sequence (O75530 whole entry) above

Polycomb protein EED [23] = target: T1, Polycomb protein EED; assay: Inhibition of human N-terminal His-6 tagged EED expressed in Escherichia coli strain […] by SPR analysis
Target sequence in this assay (O75530 whole entry): as above

KARPAS-422 [24] = assay: Antitumor activity against human KARPAS-422 cells assessed as tumor growth inhibition at 100 mg/kg, po, bid for 38 days relative to control; assay type: functional; conditions: KARPAS-422, 912 h, time 38 day, read-out: TGI
Pfeiffer [25] = assay: Antitumor activity against human Pfeiffer cells assessed as tumor growth inhibition at 100 mg/kg, po, bid for 38 days relative to control; assay type: functional; conditions: 912 h, time 38 day, read-out: TGI
Polycomb protein EED [26] = target: T1, Polycomb protein EED; assay: Inhibition of His-tagged EED (unknown origin) incubated for 30 mins in presence of biotinylated H3K27me3 peptide (19 to 33 aa) by alpha screening competitive binding assay method
Pfeiffer [27] = assay: Antitumor activity against human Pfeiffer cells xenografted in NOD/SCID mouse assessed as tumor growth inhibition at 40 mg/kg, bid, po for 36 days relative to control; assay type: functional; conditions: 864 h, time 36 day, read-out: TGI
KARPAS-422 [28] = assay: Antitumor activity against human KARPAS-422 cells xenografted in NOD/SCID mouse assessed as tumor growth inhibition at 40 mg/kg, bid, po for 36 days relative to control; assay type: functional; conditions: KARPAS-422, 864 h, time 36 day, read-out: TGI
Pfeiffer [29] = assay: Antitumor activity against human Pfeiffer cells xenografted in NOD/SCID mouse assessed as tumor growth inhibition at 100 mg/kg, bid, po for 36 days relative to control; assay type: functional; conditions: 864 h, time 36 day, read-out: TGI
KARPAS-422 [30] = assay: Antitumor activity against human KARPAS-422 cells xenografted in NOD/SCID mouse assessed as tumor growth inhibition at 100 mg/kg, bid, po for 36 days relative to control; assay type: functional; conditions: KARPAS-422, 864 h, time 36 day, read-out: TGI
[31] = Antitumor activity against […] cells xenografted in mouse assessed as tumor growth inhibition at 30 mg/kg relative to control; assay type: functional; conditions: read-out: TGI
[32] = Inhibition of GST-tagged EZH2/FLAG-tagged EED (unknown origin) protein protein interaction incubated for 1 hr by AlphaLISA method; parameters: species or system Homo sapiens

Cc1ncccc1-c1cnc(NCC2Cc3cc(F)ccc3O2)c2cncnc12 (stereo not given)
IC50 (Polycomb protein EED [1]): < 100 nM

Cc1nc(NCc2cccc3c2OCO3)sc1-c1ccn(C)n1
Kd (Polycomb protein EED [2]): 5200 nM
IC50 (Polycomb protein EED [3]): 2100 nM

Cc1ncccc1-c1cnc(NCc2c(F)cc(Cl)c3c2CCO3)n2cnnc12
Kd (Polycomb protein EED [4]): 2.4 nM
IC50 [5]: 16 nM
solubility [6]: 0.2 µM (≈ 0.0822 µg/mL)

Cc1ncccc1-c1cnc(NCc2c(F)ccc3c2CCO3)n2cnnc12
Kd (Polycomb protein EED [4]): 0.4 nM
IC50 [5]: 5 nM

Cc1ncccc1-c1cnc(NCc2c(F)cc(N)c3c2CCO3)n2cnnc12
Kd (Polycomb protein EED [4]): 0.5 nM
IC50 [5]: 50 nM

CCOP(=O)(OCC)C(NC(=O)[C@H](Cc1ccc(-c2ccccc2)cc1)NC(=O)/C=C/c1ccc(-c2ccccc2)cc1)P(=O)(OCC)OCC
IC50 [7]: 260 nM
IC50 (LNCaP C4-2B [8]): 6870 nM
IC50 [9]: 64900 nM
IC50 (LNCaP C4-2B [10]): 91100 nM
IC50 (LNCaP C4-2): 56100 nM

C=CC(=O)Nc1cc(Nc2nccc(-c3cn(C)c4ccccc34)n2)c(OC)cc1N(C)CCN(C)C [OSIMERTINIB]
IC50 (BC [11]): 15 nM
IC50 (BC [12]): 15 nM
IC50 (Lymphoma cell line [13]): 15 nM
IC50 (Lymphoma cell line [14]): 15 nM

CS(=O)(=O)N1CC=C(c2cnc(NCC3Cc4cc(F)ccc4O3)n3cnnc23)CC1 (stereo not given)
IC50 (Polycomb protein EED [1]): < 20 nM
IC50 (KARPAS-422 [15]): 13 nM
IC50 (Pfeiffer [16]): 1 nM

COc1ccc(CCN2CCC(Nc3nc4ccccc4n3Cc3ccc(F)cc3)CC2)cc1 [ASTEMIZOLE]
IC50 [17]: 93800 nM

CN(C)[C@@H]1CN(C2CCc3cccc(F)c32)C[C@H]1c1ccc(N2CCN(S(C)(=O)=O)CC2)cc1 (stereo not given in full)
ΔTm (Polycomb protein EED [18]): 18 °C

Cc1ncccc1-c1cnc(NCC2Cc3cc(F)ccc3O2)n2cc(C#N)nc12 (stereo not given)
IC50 (Polycomb protein EED [1]): < 100 nM

CN1CCc2cccc3c2[C@H]1Cc1ccc(O)c(O)c1-3 [APOMORPHINE HYDROCHLORIDE]
Ki [19]: 2900 nM
IC50 [20]: 15500 nM

Cc1ncsc1-c1ccc(CNC(=O)[C@@H]2C[C@@H](O)CN2C(=O)[C@@H](NC(=O)COc2ccc(OCCNC(=O)CCc3ccc(-c4cnc(NCc5c(F)ccc6c5CCO6)n5cnnc45)c(N)n3)cc2)C(C)(C)C)cc1
GI50 (KARPAS-422 [21]): 45 nM
Kd (Polycomb protein EED [22]): 0.631 nM
IC50 (Polycomb protein EED [23]): 6.76 nM

C[C@@H](CO)NC(=O)[C@@H]1C=C2c3cccc4[nH]cc(c34)C[C@H]2N(C)C1 [ERGONOVINE MALEATE]
Ki [19]: 71100 nM
IC50 [20]: 366000 nM

Cc1ncccc1-c1cnc(NCc2c(F)cc(C#N)c3c2CCO3)n2cnnc12
Kd (Polycomb protein EED [4]): 15 nM
IC50 [5]: 102 nM
solubility [6]: 3 µM (≈ 1.2 µg/mL)

CN1CC=C(c2cnc(NCC3Cc4cc(F)ccc4O3)c3cncnc23)CC1 (stereo not given)
IC50 (Polycomb protein EED [1]): < 100 nM

[2H]C([2H])(Nc1ncc(-c2cccnc2C)c(=O)n1C)c1c(F)ccc2c1CCO2
IC50 (Polycomb protein EED [1]): 4.5 nM
inhibition in vivo at 100 mg/kg (KARPAS-422 [24]): 85%
inhibition in vivo at 100 mg/kg (Pfeiffer [25]): 96%
IC50 (Polycomb protein EED [26]): 4.5 nM
inhibition in vivo at 40 mg/kg (Pfeiffer [27]): 83%
inhibition in vivo at 40 mg/kg (KARPAS-422 [28]): 75%
inhibition in vivo at 100 mg/kg (Pfeiffer [29]): 96%
inhibition in vivo at 100 mg/kg (KARPAS-422 [30]): 85%
inhibition in vivo at 30 mg/kg [31]: 59.3%

Cc1ccc(C(C2=C(O)CC(C)(C)CC2=O)C2C(=O)CC(C)(C)CC2=O)s1 (stereo not given)
IC50 [17]: 63800 nM

CCOc1ccc(C(=O)CSc2nnc(-c3ccc(O)cc3)c(-c3ccc(O)cc3)n2)cc1NC(=O)CC
IC50 [32]: 64000 nM

Cc1ncccc1-c1cnc(NCc2c(F)cc(F)c3c2CCO3)n2cnnc12
Kd (Polycomb protein EED [4]): 1.2 nM
IC50 [5]: 11 nM
solubility [6]: 4 µM (≈ 1.58 µg/mL)
